Legend:
human OCT2 [1] = biological target: T1, human OCT2 (Homo sapiens, UniProt O15244); assay: hOCT2 substrate; type: in vitro ADME; details: 1 μM PFAS screen
T1 sequence (O15244 1-555): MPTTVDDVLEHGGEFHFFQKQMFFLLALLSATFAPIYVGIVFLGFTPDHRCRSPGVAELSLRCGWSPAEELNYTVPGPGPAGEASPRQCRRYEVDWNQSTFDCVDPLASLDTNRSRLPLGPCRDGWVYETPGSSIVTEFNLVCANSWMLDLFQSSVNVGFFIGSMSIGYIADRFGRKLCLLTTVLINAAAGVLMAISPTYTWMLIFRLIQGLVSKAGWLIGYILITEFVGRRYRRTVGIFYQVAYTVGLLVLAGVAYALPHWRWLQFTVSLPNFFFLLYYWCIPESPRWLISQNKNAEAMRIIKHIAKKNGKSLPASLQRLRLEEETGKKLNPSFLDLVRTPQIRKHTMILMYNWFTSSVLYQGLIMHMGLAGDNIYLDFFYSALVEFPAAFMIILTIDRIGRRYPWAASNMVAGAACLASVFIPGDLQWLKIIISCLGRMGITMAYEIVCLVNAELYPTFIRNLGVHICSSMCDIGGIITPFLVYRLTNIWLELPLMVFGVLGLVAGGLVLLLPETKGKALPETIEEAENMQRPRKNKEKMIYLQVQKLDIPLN

human OAT3 [2] = biological target: T2, human OAT3 (Homo sapiens, UniProt Q8TCC7); assay: OAT3 inhibition assay
T2 sequence (Q8TCC7 1-542): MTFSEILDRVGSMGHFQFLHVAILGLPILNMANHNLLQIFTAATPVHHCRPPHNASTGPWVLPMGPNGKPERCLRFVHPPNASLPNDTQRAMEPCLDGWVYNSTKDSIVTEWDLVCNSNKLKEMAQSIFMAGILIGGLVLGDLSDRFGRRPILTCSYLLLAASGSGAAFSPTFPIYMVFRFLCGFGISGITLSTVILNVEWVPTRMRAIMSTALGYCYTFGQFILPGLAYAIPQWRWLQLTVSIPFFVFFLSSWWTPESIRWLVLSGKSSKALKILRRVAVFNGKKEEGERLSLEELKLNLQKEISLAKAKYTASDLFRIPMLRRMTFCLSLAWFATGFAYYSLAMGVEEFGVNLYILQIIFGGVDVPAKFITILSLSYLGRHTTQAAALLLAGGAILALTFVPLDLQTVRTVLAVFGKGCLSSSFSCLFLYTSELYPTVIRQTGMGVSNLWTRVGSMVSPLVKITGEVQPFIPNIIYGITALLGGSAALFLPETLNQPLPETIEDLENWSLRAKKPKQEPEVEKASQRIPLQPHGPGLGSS

human OAT1 [3] = biological target: T3, human OAT1 (Homo sapiens, UniProt Q4U2R8); assay: OAT1 inhibition assay
T3 sequence (Q4U2R8 1-563): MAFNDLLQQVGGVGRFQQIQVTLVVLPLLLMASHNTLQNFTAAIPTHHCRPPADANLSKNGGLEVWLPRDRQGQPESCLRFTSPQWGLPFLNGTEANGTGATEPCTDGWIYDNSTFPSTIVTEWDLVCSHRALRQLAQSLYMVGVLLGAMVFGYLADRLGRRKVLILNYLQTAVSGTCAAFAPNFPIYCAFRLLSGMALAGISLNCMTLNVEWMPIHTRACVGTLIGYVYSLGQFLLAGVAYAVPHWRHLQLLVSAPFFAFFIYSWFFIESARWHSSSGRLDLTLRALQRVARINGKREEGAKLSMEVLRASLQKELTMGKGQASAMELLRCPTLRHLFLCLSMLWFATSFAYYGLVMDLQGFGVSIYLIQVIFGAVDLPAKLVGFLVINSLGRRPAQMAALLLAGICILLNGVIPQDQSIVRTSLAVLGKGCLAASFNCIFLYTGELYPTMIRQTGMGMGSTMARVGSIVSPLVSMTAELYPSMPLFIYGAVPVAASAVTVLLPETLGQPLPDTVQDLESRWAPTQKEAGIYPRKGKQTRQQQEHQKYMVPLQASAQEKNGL

human OAT4 = biological target: T4, human OAT4 (Homo sapiens, UniProt Q9NSA0); assay: hOAT4 substrate; type: in vitro ADME
T4 sequence (Q9NSA0 1-550): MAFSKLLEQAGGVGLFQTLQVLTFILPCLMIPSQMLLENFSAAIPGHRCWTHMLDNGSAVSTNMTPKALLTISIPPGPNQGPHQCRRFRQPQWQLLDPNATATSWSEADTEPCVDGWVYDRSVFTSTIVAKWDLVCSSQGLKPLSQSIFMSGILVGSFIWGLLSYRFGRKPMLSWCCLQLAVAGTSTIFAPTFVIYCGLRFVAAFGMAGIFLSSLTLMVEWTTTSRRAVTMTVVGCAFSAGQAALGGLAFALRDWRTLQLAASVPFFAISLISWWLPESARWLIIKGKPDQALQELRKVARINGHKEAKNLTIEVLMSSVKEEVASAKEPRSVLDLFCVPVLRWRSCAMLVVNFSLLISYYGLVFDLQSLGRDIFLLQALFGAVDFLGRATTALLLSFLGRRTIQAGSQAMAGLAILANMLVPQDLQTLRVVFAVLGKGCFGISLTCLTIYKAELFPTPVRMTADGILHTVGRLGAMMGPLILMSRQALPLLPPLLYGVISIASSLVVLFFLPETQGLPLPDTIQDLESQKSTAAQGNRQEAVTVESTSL

[4] = PFHpA versus PFUDA; ref Zhang et al. (2013); cited from earlier work
human OAT1 [5] = biological target: T3, human OAT1; assay: hOAT1 substrate; details: 1 μM PFAS screen
human OAT3 [6] = biological target: T2, human OAT3; assay: hOAT3 substrate
human OCT2 [7] = biological target: T1, human OCT2; assay: OCT2 inhibition assay; type: cell-based
[8] = Physicochemical parameters
[9] = test system: MDCKII-LE cell monolayers; details: MDCK
in vitro = details: dog, MDCK, pH 7.4

Structure (SMILES)	hOCT2 uptake ratio, % higher than mock transfectant controls (human OCT2 [1])	Some level of inhibition against hOAT3 mediated transport (human OAT3 [2])	Some level of inhibition against hOAT1 mediated transport (human OAT1 [3])	OAT4 substrate classification (human OAT4)	hOAT4 uptake ratio, % above controls (human OAT4; 1 μM PFAS screen)	Transporter Uptake Ratio OAT4 (human OAT4; 1 μM PFAS, threshold ≥ 2-fold)	Effect of probenecid co-treatment on hOAT4-mediated uptake (human OAT4; probenecid 1 mM)	human renal clearance rate, fold higher than PFUDA [4]	IC50 (human OAT3 [2])	IC50 (human OAT1 [3])	hOAT1 uptake ratio, % higher than controls (human OAT1 [5])	hOAT3 uptake ratio, fold higher than mock transfected controls (human OAT3 [6]; 1 μM PFAS screen)	Transporter Uptake Ratio OAT3 (human OAT3 [6]; 1 μM PFAS, threshold ≥ 2-fold)	hOAT3-mediated uptake, fold (human OAT3 [6]; follow-up test, without probenecid)	Effect of probenecid cotreatment on hOAT3-mediated uptake (human OAT3 [6]; probenecid 1 mM)	IC50 (human OCT2 [7])	neutral fraction at pH 7.4 [8]	Papp at pH 6.5 relative to pH 7.4, times higher [9]	Ph 7.4 A-B Papp ([9]; dog, 90 min, 2 μM, pH 7.4)	Papp A→B at 90 min, 2 μM (in vitro)
O=C(O)C(F)(F)C(F)(F)C(F)(F)C(F)(F)C(F)(F)C(F)(F)C(F)(F)C(F)(F)C(F)(F)C(F)(F)C(F)(F)F [PFDoDA, perfluorododecanoic acid]	~ 10%	the only exceptions	the only exceptions																	
O=C(O)C(F)(F)C(F)(F)C(F)(F)C(F)(F)C(F)(F)C(F)(F)F [PFHpA, perfluoroheptanoic acid]				strong substrates	~ 20%	+ (denoted with a “+” to denote a threshold of ≥ 2-fold has been met and considered a substrate for the transporter)	effectively inhibited	~ 10 fold	10.2 µM	51.4 to 166 µM	5–60%	2.5–12 fold	+ (denoted with a “+” to denote a threshold of ≥ 2-fold has been met and considered a substrate for the transporter)	2.5–15 fold	markedly inhibited					
NS(=O)(=O)C(F)(F)C(F)(F)C(F)(F)C(F)(F)C(F)(F)C(F)(F)C(F)(F)C(F)(F)F [PFOSA, perfluorooctanesulfonamide]	~ 10%								21.1 to 123 µM							245 µM	~ 6%	~ 2 times	4.14e-05 cm/s	41.4 ×10⁻⁶ cm/s

Source: article PMC11774580 (Chemosphere, 2024)
